pEC50: −log10 of the molar value.
Tests used:
[1] = Clearance in mouse at 10 mg/kg, iv; format: ADME, organism-based; set-up: dose 10 mg/kg, route intravenous; details: in vivo
[2] = Cmax in mouse at 30 mg/kg, po; format: ADME, organism-based; set-up: dose 30 mg/kg, route oral; details: in vivo
[3] = Volume of distribution in mouse at 10 mg/kg, iv; format: ADME, organism-based; set-up: dose 10 mg/kg, route intravenous; details: in vivo, read-out: Vdss
[4] = Oral bioavailability in mouse at 30 mg/kg, po; format: ADME, organism-based; details: in vivo
[5] = Half life in mouse at 10 mg/kg, iv; format: ADME, organism-based; set-up: dose 10 mg/kg, route intravenous; details: in vivo
[6] = test system: HT-1080; experiment: Antiproliferative activity against HT1080 cells; details: Homo sapiens
[7] = test system: HT-1080; experiment: Antiproliferative activity against HT1080 cells in presence of 40 mg/ml HSA; details: Homo sapiens

Row | SMILES | clearance [1] | Cmax [2] | Vd [3] | bioavailability [4] | half-life [5] | pEC50 [6] | pEC50 [7]
1 | CCc1ccc(NS(=O)(=O)c2ccc(F)cc2)c(C(=O)O)c1OCCN | 50 mL/min/kg | 2400 nM | 1.1 L/kg | 38% | 18 min |  | 
2 | COc1c(-c2ccoc2)ccc(NS(=O)(=O)c2ccc(F)cc2)c1C(=O)O |  |  |  |  |  | 5.42 | 
3 | CCc1ccc(NS(=O)(=O)c2ccc(F)cc2/C=C\CN(CC)CC)c(C(=O)O)c1OC | 675 mL/min/kg | 100 nM | 13.8 L/kg | 16% | 12 min | 7.15 | 6.82
4 | CCCc1ccccc1S(=O)(=O)Nc1ccc(CC)c(OCCN)c1C(=O)O |  |  |  |  |  | 4.08 | 
5 | CCc1ccc(NS(=O)(=O)c2ccc(F)cc2CCCN(CC)CC)c(C(=O)O)c1OCCN |  |  |  |  |  | 4.52 | 
6 | CCc1ccc(NS(=O)(=O)c2ccccc2NCCC2CCCN2C)c(C(=O)O)c1OC (centres undefined) | 83.3 mL/min/kg | 900 nM | 2 L/kg | 13% | 18 min | 6.32 | 5.72
7 | CCN(CC)C/C=C\c1cc(F)ccc1S(=O)(=O)Nc1ccc(-c2ccoc2)c(OC)c1C(=O)O |  |  |  |  |  | 7.22 | 6.70
8 | COc1c(-c2ccoc2)ccc(NS(=O)(=O)c2ccc(F)cc2NCCCN(C)C)c1C(=O)O |  |  |  |  |  | 6.49 | 5.54
9 | CCc1ccc(NS(=O)(=O)c2ccccn2)c(C(=O)O)c1C | 26.7 mL/min/kg | 34000 nM | 5.5 L/kg | 86% | 144 min | 4.92 | 
10 | CCc1ccc(NS(=O)(=O)c2ccc(F)cc2)c(C(=O)O)c1C |  |  |  |  |  | 5.31 | 

Continued by rising pEC50 [6], values first:

Row | clearance [1] | Cmax [2] | Vd [3] | bioavailability [4] | half-life [5] | pEC50 [6] | pEC50 [7] | SMILES
11 |  |  |  |  |  | 4.96 |  | COc1c(-c2ccoc2)ccc(NS(=O)(=O)c2ccc(F)cc2Br)c1C(=O)O
12 |  |  |  |  |  | 5.85 |  | CCc1ccc(NS(=O)(=O)c2ccc(F)cc2)c(C(=O)O)c1OC
13 |  |  |  |  |  | 6.43 | 5.92 | CCc1ccc(NS(=O)(=O)c2ccccc2NCCCN2CCCCC2C)c(C(=O)O)c1OC (centres undefined)
14 | 35 mL/min/kg | 5900 nM | 0.8 L/kg | 31% | 18 min | 6.60 | 6.43 | CCc1ccc(NS(=O)(=O)c2ccccc2NCCCCN(C)C)c(C(=O)O)c1OC

Reference: ChEMBL document CHEMBL1144635, “Lead optimization of methionine aminopeptidase-2 (MetAP2) inhibitors containing sulfonamides of 5,6-disubstituted anthranilic acids” (Bioorg Med Chem Lett, 2007)
